{"source": "patent US20200164100A1", "about": "“SURGICAL METHODS EMPLOYING PURIFIED AMPHIPHILIC PEPTIDE COMPOSITIONS” (priority 2013, published 2020)", "system": "signal transduction system of living organisms", "test": "Cell culture experiments on bioactivity of the main constituent peptide", "assay_type": "cell-based", "details": "data not shown", "data": [{"substance": "CH3CO-(Arg-Ala-Asp-Ala)4-NH2", "values": [{"measurement": "bioactivity by acting on the signal transduction system of living organisms", "result": "does not exhibit bioactivity"}]}]}
